According to PubChem BioAssay (NCI):
Several values for one entry are separate records, joined by “and”; a condition that tells them apart may be missing. Equal values may be shown once.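 A five-concentration, 48-hour dose response in 96-well plates underlies each endpoint, interpolated linearly between surrounding concentrations. GI50 marks 50% less growth. TGI marks complete inhibition of growth.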

Key:
Experiment in all cases: inhibition of tumour cell growth, NCI panel, 48 h
OVCAR-5 ovarian = tested on: OVCAR-5 ovarian
SK-MEL-28 melanoma = tested on: SK-MEL-28 melanoma
U251 CNS = tested on: U251 CNS
A549 NSCLC = tested on: A549 NSCLC
MCF7 breast = tested on: MCF7 breast
TK-10 renal = tested on: TK-10 renal
SN12C renal = tested on: SN12C renal
A498 renal = tested on: A498 renal
CAKI-1 renal = tested on: CAKI-1 renal
RXF 393 renal = tested on: RXF 393 renal

## COc1ccc(-c2cc(=O)c3c(O)c(OC)c(OC)c(OC)c3o2)cc1OC
OVCAR-5 ovarian
  TGI: > 100 µM
SK-MEL-28 melanoma
  TGI: > 100 µM
U251 CNS
  TGI: > 100 µM
A549 NSCLC
  TGI: > 100 µM
MCF7 breast
  TGI: > 100 µM
TK-10 renal
  TGI: > 100 µM
SN12C renal
  TGI: > 100 µM
A498 renal
  TGI: > 100 µM
CAKI-1 renal
  TGI: > 100 µM

## CC1(C)CCC(Sc2ccccc2)O1 (stereo not drawn)
SK-MEL-28 melanoma
  TGI: > 100 µM
U251 CNS
  TGI: > 100 µM
A549 NSCLC
  TGI: > 100 µM
TK-10 renal
  TGI: > 100 µM
RXF 393 renal
  TGI: > 100 µM
SN12C renal
  TGI: > 100 µM
A498 renal
  TGI: > 100 µM
CAKI-1 renal
  TGI: > 100 µM

## C/C(=N\O)c1ccc2ccc3ccccc3c2c1
OVCAR-5 ovarian
  TGI: > 100 µM
SK-MEL-28 melanoma
  TGI: > 100 µM
U251 CNS
  TGI: > 100 µM
A549 NSCLC
  TGI: 79.8 µM
MCF7 breast
  TGI: > 100 µM
TK-10 renal
  TGI: > 100 µM
RXF 393 renal
  TGI: > 100 µM
SN12C renal
  TGI: > 100 µM
CAKI-1 renal
  TGI: > 100 µM

## CC(C)(C)c1cc(CCC(=O)Nc2ccc(Cl)cc2)[nH]c(=S)n1
OVCAR-5 ovarian
  TGI: > 100 µM
SK-MEL-28 melanoma
  TGI: > 100 µM
U251 CNS
  TGI: > 100 µM
A549 NSCLC
  TGI: > 100 µM
TK-10 renal
  TGI: > 100 µM
RXF 393 renal
  TGI: > 100 µM
SN12C renal
  TGI: > 100 µM
CAKI-1 renal
  TGI: > 100 µM

## COC(=O)C(=O)Cc1nc2ccccc2s1
OVCAR-5 ovarian
  TGI: > 100 µM
SK-MEL-28 melanoma
  TGI: > 100 µM
U251 CNS
  TGI: > 100 µM
A549 NSCLC
  TGI: > 100 µM
TK-10 renal
  TGI: > 100 µM
RXF 393 renal
  TGI: > 100 µM
SN12C renal
  TGI: > 100 µM
A498 renal
  TGI: > 100 µM
CAKI-1 renal
  TGI: > 100 µM

## CCCCC1=CSC(c2ccccc2)=C(c2ccccc2)S1
SK-MEL-28 melanoma
  TGI: > 100 µM
U251 CNS
  TGI: > 100 µM
A549 NSCLC
  TGI: > 100 µM
TK-10 renal
  TGI: > 100 µM
SN12C renal
  TGI: > 100 µM
A498 renal
  TGI: > 100 µM

## COC1=C(N)C(=O)c2nc(-c3nc(C(=O)O)c(C)c(-c4ccc(OC)c(OC)c4O)c3N)ccc2C1=O
OVCAR-5 ovarian
  GI50: 0.00332 µM and 0.00352 µM and 0.0143 µM
A549 NSCLC
  GI50: 0.00135 µM and 0.00894 µM
  TGI: 0.00428 µM and 0.0325 µM and 0.0216 µM
TK-10 renal
  TGI: 0.00795 µM and 0.0706 µM
RXF 393 renal
  TGI: 15 nM [middle of 4 runs]
SN12C renal
  GI50: 0.00175 µM and 0.0149 µM
  TGI: 0.00884 µM and 0.0161 µM
A498 renal
  GI50: 0.00128 µM

## O=C1c2ccccc2C(=O)c2cc3c(cc21)CS(=O)C3
OVCAR-5 ovarian
  TGI: > 100 µM
SK-MEL-28 melanoma
  TGI: > 100 µM
U251 CNS
  TGI: > 100 µM
A549 NSCLC
  TGI: > 100 µM
TK-10 renal
  TGI: > 100 µM
RXF 393 renal
  TGI: > 100 µM
SN12C renal
  TGI: 43.3 µM
CAKI-1 renal
  TGI: > 100 µM

## Cn1c(CBr)nc2c1C(=O)c1nc(CBr)[nH]c(=O)c1C2=O
SK-MEL-28 melanoma
  TGI: > 100 µM
U251 CNS
  TGI: > 100 µM
A549 NSCLC
  TGI: > 100 µM
TK-10 renal
  TGI: > 100 µM
RXF 393 renal
  TGI: > 100 µM
SN12C renal
  TGI: > 100 µM
A498 renal
  TGI: > 100 µM
CAKI-1 renal
  TGI: > 100 µM

## COC1C2C[C@@H](O)CCC2C(C(=O)OCCl)C[C@H]1O (stereo partly drawn)
SK-MEL-28 melanoma
  TGI: > 100 µM
U251 CNS
  TGI: > 100 µM
A549 NSCLC
  TGI: > 100 µM
TK-10 renal
  TGI: > 100 µM
RXF 393 renal
  TGI: > 100 µM
SN12C renal
  TGI: > 100 µM
A498 renal
  TGI: > 100 µM
CAKI-1 renal
  TGI: > 100 µM

## COC(=O)CCSC(=O)Nc1ccc(N=Nc2ccccc2)cc1
OVCAR-5 ovarian
  TGI: > 100 µM
SK-MEL-28 melanoma
  TGI: > 100 µM
U251 CNS
  TGI: > 100 µM
A549 NSCLC
  TGI: > 100 µM
TK-10 renal
  TGI: > 100 µM
RXF 393 renal
  TGI: > 100 µM
SN12C renal
  TGI: > 100 µM
A498 renal
  TGI: 62.1 µM
CAKI-1 renal
  TGI: > 100 µM

## COc1cccc2c1-c1nc(N)c3c(OC)cccc3c1C2=O
OVCAR-5 ovarian
  TGI: > 100 µM
SK-MEL-28 melanoma
  TGI: > 100 µM
U251 CNS
  TGI: > 100 µM
A549 NSCLC
  TGI: > 100 µM
MCF7 breast
  TGI: > 100 µM
TK-10 renal
  TGI: > 100 µM
SN12C renal
  TGI: > 100 µM
A498 renal
  TGI: > 100 µM
CAKI-1 renal
  TGI: > 100 µM

## O=C1CC2OCC=C3CN4CCC56c7ccccc7N1C5C2C3CC46O (stereo not drawn)
OVCAR-5 ovarian
  TGI: > 100 µM
SK-MEL-28 melanoma
  TGI: > 100 µM
U251 CNS
  TGI: > 100 µM
A549 NSCLC
  TGI: > 100 µM
MCF7 breast
  TGI: > 100 µM
TK-10 renal
  TGI: > 100 µM
SN12C renal
  TGI: > 100 µM
A498 renal
  TGI: > 100 µM
CAKI-1 renal
  TGI: > 100 µM

## COc1cc([N+](=O)[O-])c(OC)cc1-c1nc2sc(C)c(C)n2c1/C(N)=N/C(=N)N
OVCAR-5 ovarian
  GI50: > 100 µM
  TGI: > 100 µM
SK-MEL-28 melanoma
  GI50: > 100 µM
  TGI: > 100 µM
U251 CNS
  GI50: 2.29 µM
  TGI: > 100 µM
A549 NSCLC
  GI50: > 100 µM
  TGI: > 100 µM
MCF7 breast
  GI50: 1.53 µM
  TGI: > 100 µM
TK-10 renal
  GI50: > 100 µM
  TGI: > 100 µM
RXF 393 renal
  GI50: > 100 µM
  TGI: > 100 µM
CAKI-1 renal
  GI50: > 100 µM
  TGI: > 100 µM

## CN=c1ss/c(=N\C(=S)N(C)C)n1C
OVCAR-5 ovarian
  TGI: > 100 µM
SK-MEL-28 melanoma
  TGI: > 100 µM
U251 CNS
  TGI: > 100 µM
A549 NSCLC
  TGI: > 100 µM
TK-10 renal
  TGI: > 100 µM
RXF 393 renal
  TGI: > 100 µM
SN12C renal
  TGI: > 100 µM
A498 renal
  TGI: > 100 µM
CAKI-1 renal
  TGI: > 100 µM

## NC1NC=NC2C1N=CN2C1OC(CO)C2[O][Sn][O]C21 (stereo not drawn)
OVCAR-5 ovarian
  GI50: > 100 µM
  TGI: > 100 µM
SK-MEL-28 melanoma
  GI50: > 100 µM
  TGI: > 100 µM
U251 CNS
  GI50: > 100 µM
  TGI: > 100 µM
A549 NSCLC
  GI50: > 100 µM
  TGI: > 100 µM
TK-10 renal
  GI50: > 100 µM
  TGI: > 100 µM
RXF 393 renal
  GI50: > 100 µM
  TGI: > 100 µM
SN12C renal
  GI50: 1.98 µM
  TGI: > 100 µM
A498 renal
  GI50: > 100 µM
  TGI: > 100 µM
CAKI-1 renal
  GI50: > 100 µM
  TGI: > 100 µM

## CCOC(=O)C(C)(NC(=O)c1ccc(NCc2ccc3nc(NC(=O)c4ccccc4)nc(NC(=O)c4ccccc4)c3c2)cc1)C(=O)OCC
OVCAR-5 ovarian
  TGI: > 100 µM
SK-MEL-28 melanoma
  TGI: 27.6 µM
U251 CNS
  TGI: 21 µM
A549 NSCLC
  TGI: 35.2 µM
TK-10 renal
  TGI: 48.9 µM
RXF 393 renal
  TGI: 7.92 µM
SN12C renal
  TGI: 29.8 µM
A498 renal
  TGI: 22.7 µM
CAKI-1 renal
  TGI: 21.9 µM

## O=[N+]([O-])c1ccc(C2=Nc3ccccc3S(=O)C(c3ccccc3)C2)cc1 (stereo not drawn)
OVCAR-5 ovarian
  TGI: 92.8 µM
SK-MEL-28 melanoma
  TGI: 48.1 µM
A549 NSCLC
  TGI: > 100 µM
TK-10 renal
  TGI: 82.9 µM
RXF 393 renal
  TGI: 29 µM
SN12C renal
  TGI: 53.7 µM
CAKI-1 renal
  TGI: 37.4 µM

## CC(=O)Nc1ccc(C(=O)CCl)cc1
OVCAR-5 ovarian
  GI50: 12.2 µM
  TGI: 26.1 µM
SK-MEL-28 melanoma
  GI50: 2.49 µM
  TGI: 7.54 µM
U251 CNS
  GI50: 12.4 µM
  TGI: 25.1 µM
A549 NSCLC
  GI50: 18.9 µM
  TGI: 39.2 µM
MCF7 breast
  GI50: 1.66 µM
  TGI: 6.54 µM
TK-10 renal
  GI50: 2.82 µM
  TGI: 7.71 µM
RXF 393 renal
  GI50: 3.41 µM
  TGI: 11.6 µM
SN12C renal
  GI50: 5.35 µM
  TGI: 19.2 µM
CAKI-1 renal
  GI50: 1.78 µM
  TGI: 3.24 µM

## COc1cc(C2c3cc4c(cc3[C@@H](NCCN(C)C)C3COC(=O)[C@H]23)OCO4)cc(OC)c1O (stereo partly drawn)
SK-MEL-28 melanoma
  TGI: 2.14 µM and 3.38 µM
U251 CNS
  TGI: 0.365 µM and 1.33 µM
TK-10 renal
  TGI: 3.58 µM and 5.2 µM
RXF 393 renal
  GI50: 0.301 µM and 1.11 µM
  TGI: 2.08 µM and 4.37 µM
SN12C renal
  GI50: 0.0256 µM and 0.084 µM
  TGI: 0.406 µM and 0.982 µM
CAKI-1 renal
  GI50: 0.306 µM and 0.652 µM
  TGI: 3.46 µM and 4.21 µM

## COc1cccc(/C=C/C(=O)c2ccc3cc(OC)ccc3c2)c1
OVCAR-5 ovarian
  GI50: 11.1 µM
  TGI: 25.5 µM
SK-MEL-28 melanoma
  GI50: 12.6 µM
  TGI: 48.1 µM
U251 CNS
  GI50: 14 µM
  TGI: 42 µM
A549 NSCLC
  GI50: 15.5 µM
  TGI: 49.4 µM
MCF7 breast
  GI50: 15.4 µM
  TGI: > 50 µM
TK-10 renal
  GI50: 15.6 µM
  TGI: 46.4 µM
CAKI-1 renal
  GI50: 16.4 µM
  TGI: > 50 µM
